According to US10300048B2, “Thiazolidinones as cellular anandamide uptake inhibitors and their use in the treatment of psychiatric or neurological disorders and inflammation, in particular neuroinflammation” (UNIVERSITAT BERN, priority 2014, dated 2019):
Read-outs that look alike come from different tables or passages of the source.

Key:
[1] = tested on: AEA cellular uptake, U937 cells; assay: [3H]-AEA cellular uptake inhibition in U937 cells; type: cell-based; details: Homo sapiens, U-937, U937 cells
Experimental: [^3H]-AEA Cellular Uptake
Screening for AEA cellular uptake inhibition was performed in a semi-automated procedure: Pipetting and washing steps were performed by a Biomek3000 laboratory workstation. First, required amounts of U937 cells were centrifuged at 100×g for 5 min and resuspended in RPMI (37° C.) to a final concentration of 2×10^6 cells/mL. Then, 250 μL of cell suspension (0.5×10^6 cells per sample) were transferred into AquaSil™ silanized glass vials (Chromacol 1.1-MTV) in 96-well format. After addition of 5 μL vehicle (DMSO) or compounds the cells were incubated at 37° C. for 15 min. As positive controls OMDM-2 and UCM707 were used at 10 μM in each run. The ETI-T compounds were measured at up to 7 concentrations in triplicates from 100 pM-100 μM. After pre-incubation, a mixture of 0.5 nM[ethanolamine-1-^3H]-AEA, (60 Ci/mmol) and 99.5 nM of cold AEA (final 100 nM) was added and samples were incubated at 37° C. for another 15 min. The reaction was stopped by rapid filtration over UniFilter-96 GF/C filters (PerkinElmer) pre-soaked with PBS 0.25% BSA. Cells were washed three times with 100 μL ice-cold PBS buffer containing 1% fatty acid free BSA. After drying, 45 μL MicroScint 20 scintillation cocktail (PerkinElmer, Waltham, Mass., US) was added to the wells and the plate was sealed. Radioactivity was measured by liquid scintillation counting on a PerkinElmer Wallac Trilux MicroBeta 1450 during 2 min. Non-specific binding of [^3H]AEA (100 nM) to the glass vials was never higher than 10%. IC50 values were calculated by GraphPad® by non-linear regression using the built-in log(inhibitor) vs. response-variable slope (four parameters) function.
(§1) Statistical analysis and IC50 values were determined using GraphPad® Prism 5.0 (GraphPad® Software, San Diego, Calif., US). Inhibition curves were obtained by non-linear regression using the built-in log(inhibitor) vs. response-variable slope (four parameters) function. Results were calculated as % of vehicle control of the corresponding fraction (cells, aqueous phase) if not mentioned else. In vivo results are shown in absolute values and were analyzed by a one-way ANOVA following a Tukey's multiple comparison test or student's t-test. If not indicated else the results were compared vs. vehicle (CTRL). *** P<0.001, ** P<0.01, * P<0.05, ns=not significant P>0.05.

[2] = tested on: TNF-alpha and IL-1beta in brain; assay: Endotoxemia mouse model (LPS), brain cytokines; type: in vivo, mice; details: 5 mg/kg i.p. 30 min prior to LPS 250 μg/100 g i.p., vs. vehicle, P<0.05
Experimental: Male BALB/c mice were injected i.p. with test compounds (5 mg/kg) or vehicle (DMSO, 20 μL) 30 min prior to LPS administration (250 μg/100 g body weight) in 50 μL saline solution. The administrations were conducted between 9:00 and 10:00 am. 30 min prior to scarification, 20 units (200 μL) of Inhepar® were injected subcutaneously. […] The brain was immediately removed on ice and stored in liquid nitrogen. […] The concentrations of the cytokines in brain and plasma were measured using commercially available Luminex MagPix cytokines assay (BioRad) specific for mice, according to the manufacturer's instructions. The acquisition of the fluorescent signal was achieved by a charged-coupled device (CCD) imager. The concentration of the analytes was determined by MAGPIX xPONENT. The assays were run in triplicates and the concentrations were expressed in pg/mL based on a standard curve.
as §1

[3] = Table 1, 100 nM AEA, read-out: AEA uptake inhibition IC50
[4] = Table 4, read-out: AEA uptake IC50

| SMILES | IC50 [1, 3] [nM] | IC50 [1, 4] [nM] | IL-1beta level in total brain ([2]; after 2 hours) | TNF-alpha level in total brain ([2]; after 2 hours) | IL-1beta level in total brain ([2]; after 8 hours) | TNF-alpha level in total brain ([2]; after 8 hours) |
| --- | --- | --- | --- | --- | --- | --- |
| COc1ccc(/C=C2\S/C(=N\c3ccc(OC)cc3)N(c3ccc(OC)cc3)C2=O)cc1 [Compound 5] | 148 | 148 | Decrease | Decrease | Decrease | Decrease |
| COc1cc(/C=C2\S/C(=N\c3ccccc3)N(c3ccccc3)C2=O)ccc1O [Compound 6] | 225 | 225 | – | – | – | – |
| O=C1/C(=C/c2cc(Cl)c(O)c(Cl)c2)S/C(=N\c2ccccc2)N1Cc1ccco1 [Compound 23] | 990 | 990 | – | – | – | – |
